≈ marks a conversion by molar mass, not a printed value. Where two headings read alike, the source gives them in different places.

For data set [1], the system named is P. acnes ATCC 11827. In words: Antibacterial activity, MIC in broth serial dilution. The following applies: for MIC: Cutibacterium acnes, ATCC11827, 72 h, read-out: MIC P. acnes, P. acnes ATCC 11827, 72 h anaerobic.
Procedure: Compounds were tested at serial dilutions in bacterial broth starting at 100 μg/cm^3 (final concentration). P. acnes (ATCC 11827, lot 419697) was grown in thioglycollate nutrient broth (Hardy Diagnostics K29) for 72 h at 33 °C, then inoculated at the density equivalent to 0.5 McFarland standard and incubated with the test materials for another 72 h in an anaerobic environment. […] At the end of the incubation the MIC was assessed optically as the lowest concentration of a test material which caused no bacteria growth [34]. This optical assessment was further confirmed by measuring the absorbance at 655 nm with the BioRad 3550-UV microplate reader. The MIC was defined as at least 50 % inhibition of the increase of OD.
Data set [2] concerns neonatal human dermal fibroblasts (ATCC PCS-201-010). In words: Cytotoxic activity, fibroblast proliferation (sulforhodamine B). It is filed as cell-based. The note with it: for cytotoxic activity on fibroblast proliferation: 96 h, 6.25–100 μg/cm^3. How it is done: Passage for normal neonatal human dermal fibroblasts (ATCC PCS-201-010, lot 58243223) were grown in DMEM with 5 % calf serum (Hyclone). For the experiment, cells were plated in DMEM/5 % serum at 2,000 cells/well in 96 well plates (plate 598) and were exposed to test materials for 96 h. MAP and bFGF were used as the positive controls and water, 1, 0.5, and 0.25 % DMSO were used as the negative controls. Plate growth was stopped and cells were stained with a sulforhodamine B dye. The dye was then dissolved and a colorimetric signal proportional to total cell/protein count was quantified with the BioRad microplate spectrophotometer 3550-UV at 570 nm with background subtraction at 660 nm and analyzed with Microplate Manager v.2 software for Macintosh (BioRad). Error bars represent standard errors of the mean (SEM). P values representing statistical significance were calculated using the t test.

Data set [3] deals with M. tuberculosis sp. 192. In words: Tuberculostatic activity, classical test-tube method of successive dilution. It is filed as cell-based. The following applies: Mycobacterium tuberculosis; sp. 192, fully sensitive wild strain.
Data set [4] concerns UO-31. In words: NCI-60 DTP human tumor cell line screening. It is filed as cell-based. The following applies: for inhibition at 10 µM: Homo sapiens.
Data set [5] concerns panel of 60 human tumor cell lines. In words: NCI-60 DTP human tumor cell line screening, whole panel. The following applies: 10 μM, mean of growth percent for all tested cell lines.
In data set [6] the test system is Mycobacterium tuberculosis H37Rv strain. In words: Tuberculostatic activity, classical test-tube method of successive dilution. In kind it is cell-based.
The subject of data set [7] is A498. In words: NCI-60 DTP human tumor cell line screening. In kind it is cell-based. The note with it: Homo sapiens; one dose 10 μM, Renal cancer A498; read-out: Growth inhibition ΔGI.
Data set [8] concerns MALME-3M. The data set can be described thus: NCI-60 DTP human tumor cell line screening. The note with it: Homo sapiens; one dose 10 μM, Melanoma MALME-3M; read-out: Growth inhibition ΔGI. In kind it is cell-based.
For data set [9], the system named is SNB-75. The data set can be described thus: NCI-60 DTP human tumor cell line screening. It is filed as cell-based. The note with it: Homo sapiens; one dose 10 μM, CNS cancer SNB-75; read-out: Growth inhibition ΔGI.
Data set [10] concerns NCI-H522. The data set can be described thus: NCI-60 DTP human tumor cell line screening. It is filed as cell-based. The following applies: Homo sapiens; one dose 10 μM, Non-small cell lung cancer NCI-H522; read-out: Growth inhibition ΔGI.
Data set [11] relates to HOP-92. In words: NCI-60 DTP human tumor cell line screening. In kind it is cell-based. The note with it: Homo sapiens; one dose 10 μM, Non-small cell lung cancer HOP-92; read-out: Growth inhibition ΔGI.
Data set [12] deals with Mycobacterium tuberculosis H37Rv, sp. 210 and sp. 192. The data set can be described thus: Tuberculostatic activity, three tested strains together. In kind it is cell-based.
Setting [13] is: UO-31, one dose 10 μM, Renal cancer UO-31, read-out: Growth inhibition ΔGI.

For orientation: melting point means the temperature of the solid-liquid transition. By MIC is commonly meant the smallest concentration in the dilution series that meets the test's criterion for growth inhibition. In turn, `NC(=NS(=O)(=O)c1ccccc1Cl)c1ccccn1` [Compound 1, N′-[(2-Chlorophenyl)sulfonyl]-2-pyridinecarboximidamide] yielded a melting point of 140 to 142 °C. In addition, the minimal inhibitory concentration (MIC) in [1] fell in the range of 12.5 to 50 µg/mL (≈ 42.3 to 169 µM). Besides, the “MIC P. acnes” value in [1] (P. acnes ATCC 11827, 72 h anaerobic) is 25 µg/mL (≈ 84.5 µM). This molecule showed a growth inhibitory activity in data set [2] (100 μg/cm^3) of 88%. Also, the cytotoxic effect entry in data set [2] (6.25–12.5 μg/cm^3) is “no cytotoxic effect was evident”. Further, in data set [2], the “cytotoxic activity on fibroblast proliferation” value was “weak inhibitory activity”.

Usually inhibition stands for the drop in the measured response relative to a control, in per cent. As to `NC(=NS(=O)(=O)c1cnccc1Cl)c1ccccn1` [Compound 2, N′-[(4-Chloropyridin-3-yl)sulfonyl]-2-pyridinecarboximidamide], in [2], the “cytotoxic activity on fibroblast proliferation” value is reported as “no cytotoxic activity”. The MIC in data set [3] and in data set [6] was 50 µg/mL (≈ 168 µM) in each case. The inhibition at 10 µM in data set [4] (UO-31, read-out: Growth inhibition ΔGI) turned out to be 20.4%. Further, the “Growth percent mean values (MG_MID)” value in [5] is given as 98.2%.

For `N/C(=N\S(=O)(=O)c1ccccc1Cl)c1cccnc1` [Compound 3, (Z)-N′-[(2-Chlorophenyl)sulfonyl]-3-pyridinecarboximidamide], the melting point was in the range of 188 to 190 °C. The MIC in data set [1] was greater than 100 µg/mL.

On to `N/C(=N\S(=O)(=O)c1cnccc1Cl)c1cccnc1` [Compound 4, (Z)-N′-[(4-Chloropyridin-3-yl)sulfonyl]-3-pyridinecarboximidamide], for which the inhibition at 10 µM amounted to 24.1% in data set [7] and 20% in data set [8]. In addition, the minimum inhibitory concentration (MIC) in data set [1] is greater than 100 µg/mL. The “Growth percent mean values (MG_MID)” value in [5] stood at 104.8%.

In turn, `NC(=NS(=O)(=O)c1ccccc1Cl)c1ccncc1` [Compound 5, N′-[(2-Chlorophenyl)sulfonyl]-4-pyridinecarboximidamide] registered a melting point of 182 to 185 °C. In [1], the MIC was greater than 100 µg/mL.

`NC(=NS(=O)(=O)c1cnccc1Cl)c1ccncc1` [Compound 6, N′-[(4-Chloropyridin-3-yl)sulfonyl]-4-pyridinecarboximidamide] displayed a melting point of 215 to 218 °C. For the same molecule, in data set [1], the MIC was greater than 100 µg/mL.

For `NC(=NS(=O)(=O)c1ccccc1Cl)c1ncccn1` [Compound 7, N′-[(2-Chlorophenyl)sulfonyl]pyrimidine-2-carboximidamide], the results for the minimal inhibitory concentration (MIC) in [1], in data set [3] and in [6] were greater than 100 µg/mL, 50 µg/mL (≈ 168 µM) and 50 µg/mL (≈ 168 µM), respectively. For the same molecule, the inhibition at 10 µM in [4] (setting [13]) was found to be 19.4%. Besides, the “Growth percent mean values (MG_MID)” value in data set [5] came out at 103.0%.

Molecule `NC(=NS(=O)(=O)c1cnccc1Cl)c1ncccn1` [Compound 8, N′-[(4-Chloropyridin-3-yl)sulfonyl]pyrimidine-2-carboximidamide] gave a melting point of 162 to 163 °C. For the same molecule, in [1], the MIC was greater than 100 µg/mL. The minimal inhibitory concentration (MIC) in [3] is 50 µg/mL (≈ 168 µM). Moreover, the minimal inhibitory concentration (MIC) in data set [6] was found to be 50 µg/mL (≈ 168 µM).

The molecule `NC(=NS(=O)(=O)c1ccccc1Cl)c1cnccn1` [Compound 9, N′-[(2-Chlorophenyl)sulfonyl]pyrazine-2-carboximidamide] came in with a melting point of 173 to 174 °C. The minimal inhibitory concentration (MIC) in data set [1] was greater than 100 µg/mL.

For the molecule `NC(=NS(=O)(=O)c1cnccc1Cl)c1cnccn1` [Compound 10, N′-[(4-Chloropyridin-3-yl)sulfonyl]pyrazine-2-carboximidamide], the MIC in data set [1] is greater than 100 µg/mL; in [3], 25 µg/mL (≈ 84 µM); in data set [6], 50 µg/mL (≈ 168 µM). For the same molecule, the inhibition at 10 µM in data set [9] was found to be 19.3%. For the same molecule, the “Growth percent mean values (MG_MID)” value in data set [5] was 101.9%.

Regarding `NC(=NS(=O)(=O)c1ccccc1Cl)c1cncc(Cl)n1` [Compound 11, 6-Chloro-N′-(2-chlorophenylsulfonyl)pyrazine-2-carboximidamide], the minimum inhibitory concentration (MIC) in data set [1] was greater than 100 µg/mL. Moreover, the results for the inhibition at 10 µM in [8] and in data set [4] (setting [13]) were 22.6% and 19.4 to 21.1%, respectively. Besides, the “Growth inhibition ΔGI” value in [4] (one dose 10 μM, Renal cancer UO-31) stood at 22.6%. Besides, in [5], the “Growth percent mean values (MG_MID)” value is reported as 102.1%.

In the case of `NC(=NS(=O)(=O)c1cnccc1Cl)c1cncc(Cl)n1` [Compound 12, 6-Chloro-N′-[(4-chloropyridin-3-yl)sulfonyl]pyrazine-2-carboximidamide], the inhibition at 10 µM in [10] is 143%; in data set [11], 25.9%. In data set [1], the minimal inhibitory concentration (MIC) was greater than 100 µg/mL. Also, the “Growth percent mean values (MG_MID)” value in [5] is 97.8%.

Take `COc1cncc(C(N)=NS(=O)(=O)c2ccccc2Cl)n1` [Compound 13, N′-(2-Chlorophenylsulfonyl)-6-methoxypyrazine-2-carboximidamide]: the melting point lay within 227 to 230 °C. The minimum inhibitory concentration (MIC) in data set [1] is greater than 100 µg/mL.

Take `COc1cncc(C(N)=NS(=O)(=O)c2cnccc2Cl)n1` [Compound 14, N′-[(4-Chloropyridin-3-yl)sulfonyl]-6-methoxypyrazine-2-carboximidamide]: the melting point is 265 to 270 °C (dec.). Moreover, the MIC in [1] is greater than 100 µg/mL.

With `NC(=NS(=O)(=O)c1cnccc1Cl)c1ccc2ccccc2n1` [Compound 16, N′-[(4-Chloropyridin-3-yl)sulfonyl]quinoline-2-carboximidamide], in data set [1], the MIC was greater than 100 µg/mL.

For the molecule `NNC(=O)c1ccncc1` [INH, isoniazid, reference compound], the MIC in data set [12] is 0.5 to 1 µg/mL (≈ 3.65 to 7.29 µM); in [3], 0.5 µg/mL (≈ 3.65 µM); in data set [6], 0.5 µg/mL (≈ 3.65 µM).

Source of the values: article PMC4494771, “Synthesis, structure, and biological activity of novel heterocyclic sulfonyl-carboximidamides” (Monatshefte Fur Chemie, 2013).
